Measured values taken from patent publication US20220298163A1, “BTK INHIBITORS WITH IMPROVED DUAL SELECTIVITY” (BEIGENE, LTD., priority 2017, published 2022).

How the values were obtained:
[1] = biological target: T1, Tec (Homo sapiens, UniProt P42680); assay: Biochemical kinase selectivity: IC50 determination of Tec; conditions: for IC50: TR-FRET, 280 μM ATP; for Fold of Tec/Btk: ratio of IC50 values
T1 sequence (P42680 1-631): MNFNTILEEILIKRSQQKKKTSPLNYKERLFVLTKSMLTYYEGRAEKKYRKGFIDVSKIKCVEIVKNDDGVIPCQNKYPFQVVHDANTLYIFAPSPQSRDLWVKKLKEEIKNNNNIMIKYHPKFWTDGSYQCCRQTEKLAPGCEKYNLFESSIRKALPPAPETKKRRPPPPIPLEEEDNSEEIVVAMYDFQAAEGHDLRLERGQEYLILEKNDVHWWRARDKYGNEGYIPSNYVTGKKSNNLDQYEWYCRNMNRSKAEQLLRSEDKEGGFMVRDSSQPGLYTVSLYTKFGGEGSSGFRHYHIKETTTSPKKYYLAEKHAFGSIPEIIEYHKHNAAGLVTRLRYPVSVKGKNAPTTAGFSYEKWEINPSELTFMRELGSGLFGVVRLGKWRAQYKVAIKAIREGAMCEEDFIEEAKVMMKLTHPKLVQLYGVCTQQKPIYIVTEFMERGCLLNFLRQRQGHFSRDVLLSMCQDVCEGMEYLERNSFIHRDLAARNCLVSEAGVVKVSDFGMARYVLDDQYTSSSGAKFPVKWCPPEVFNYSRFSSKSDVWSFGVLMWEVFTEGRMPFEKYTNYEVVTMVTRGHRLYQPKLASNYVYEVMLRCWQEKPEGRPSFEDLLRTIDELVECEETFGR

[2] = biological target: EGFR (Homo sapiens, UniProt P00533); assay: Biochemical kinase selectivity: IC50 determination of EGFR; conditions: for IC50: TR-FRET, 20 μM ATP; for Fold of EGFR/Btk: ratio of IC50 values
Chain of EGFR (P00533 25-1210): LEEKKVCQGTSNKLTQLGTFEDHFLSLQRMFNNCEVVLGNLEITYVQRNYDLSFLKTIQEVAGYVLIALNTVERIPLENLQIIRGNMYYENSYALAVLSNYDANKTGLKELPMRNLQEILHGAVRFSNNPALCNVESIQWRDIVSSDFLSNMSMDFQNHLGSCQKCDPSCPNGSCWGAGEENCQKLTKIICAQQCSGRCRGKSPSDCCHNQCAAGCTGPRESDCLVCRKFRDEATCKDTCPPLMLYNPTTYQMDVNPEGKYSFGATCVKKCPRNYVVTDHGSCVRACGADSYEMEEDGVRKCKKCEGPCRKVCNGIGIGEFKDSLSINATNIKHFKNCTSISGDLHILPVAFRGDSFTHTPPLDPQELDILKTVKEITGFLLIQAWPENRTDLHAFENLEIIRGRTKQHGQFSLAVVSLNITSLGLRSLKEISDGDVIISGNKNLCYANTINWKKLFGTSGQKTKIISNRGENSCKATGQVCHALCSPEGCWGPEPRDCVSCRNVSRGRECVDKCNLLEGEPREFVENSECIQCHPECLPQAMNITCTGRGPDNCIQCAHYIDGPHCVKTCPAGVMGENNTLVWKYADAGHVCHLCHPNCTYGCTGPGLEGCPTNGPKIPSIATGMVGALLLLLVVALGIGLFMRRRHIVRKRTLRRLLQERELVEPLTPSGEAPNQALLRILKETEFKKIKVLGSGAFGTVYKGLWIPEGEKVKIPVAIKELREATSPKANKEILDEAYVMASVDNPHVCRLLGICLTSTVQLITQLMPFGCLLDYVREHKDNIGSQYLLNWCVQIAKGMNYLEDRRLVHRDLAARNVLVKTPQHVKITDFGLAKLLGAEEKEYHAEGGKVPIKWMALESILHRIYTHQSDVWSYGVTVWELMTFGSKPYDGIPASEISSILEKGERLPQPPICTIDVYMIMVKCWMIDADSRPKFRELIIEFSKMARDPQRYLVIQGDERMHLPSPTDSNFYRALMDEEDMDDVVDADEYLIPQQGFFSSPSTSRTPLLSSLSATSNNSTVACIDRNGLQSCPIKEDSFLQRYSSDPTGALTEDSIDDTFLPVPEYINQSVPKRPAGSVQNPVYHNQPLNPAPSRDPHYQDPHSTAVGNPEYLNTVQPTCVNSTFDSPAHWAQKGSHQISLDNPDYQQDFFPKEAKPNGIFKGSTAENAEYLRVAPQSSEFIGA

[3] = biological target: T2, phosphorylated Btk at Tyr223 (Homo sapiens, UniProt Q06187); assay: Btk pY223 cellular assay (HTRF, Ramos cells); format: cell-based; conditions: compound 3 hours, pervanadate or Na3VO4 stimulation, read-out: IC50 (nM) in cell Btk pY223
T2 construct: determine the endogenous levels of phosphorylated Btk at Tyr223; endogenous in cells; host or cells: Ramos cells (CRL-1596, ATCC)
T2 sequence (Q06187 whole entry): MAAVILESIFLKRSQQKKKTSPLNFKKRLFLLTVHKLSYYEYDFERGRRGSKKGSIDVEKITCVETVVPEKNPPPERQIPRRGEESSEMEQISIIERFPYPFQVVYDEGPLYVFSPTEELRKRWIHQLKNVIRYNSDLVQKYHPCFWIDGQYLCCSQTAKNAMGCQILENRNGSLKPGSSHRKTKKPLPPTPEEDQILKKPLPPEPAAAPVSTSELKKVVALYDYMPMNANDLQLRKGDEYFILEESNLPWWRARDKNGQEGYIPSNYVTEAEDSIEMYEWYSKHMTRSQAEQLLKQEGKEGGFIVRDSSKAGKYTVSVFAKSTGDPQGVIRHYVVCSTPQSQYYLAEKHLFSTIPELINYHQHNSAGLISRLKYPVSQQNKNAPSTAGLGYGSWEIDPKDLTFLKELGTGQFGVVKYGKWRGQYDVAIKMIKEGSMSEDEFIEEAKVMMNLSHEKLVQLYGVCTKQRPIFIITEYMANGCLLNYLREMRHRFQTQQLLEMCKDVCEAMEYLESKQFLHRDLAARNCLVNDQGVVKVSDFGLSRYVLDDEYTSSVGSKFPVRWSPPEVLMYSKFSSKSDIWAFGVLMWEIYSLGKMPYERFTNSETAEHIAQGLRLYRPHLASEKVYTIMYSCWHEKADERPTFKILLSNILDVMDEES
Method: Btk pY223 cellular assay is an HTRF based assay intended to determine the endogenous levels of phosphorylated Btk at Tyr223.
Briefly, Ramos cells were serum starved in 0.5% FBS-containing RPMI1640 overnight. The cells were then incubated with interested compounds at various concentrations in a CO2 incubator for 3 hours. After the incubation, cells were stimulated with 1 mM pervanadate (PV) or Na3VO4 (OV) for 20 min. Then, the cells were collected and lysed with 1× lysis buffer at RT for 10 min (4× lysis buffer supplied in the kit). 1× antibody mix was prepared by diluting anti-Btk-d2 and anti-pBtk-K in detection buffer (supplied in the kit). […] After mixing gently and spinning briefly, the plate was sealed up and kept in dark at RT for 18 hours. […] IC50 values were calculated with GraphPad Prism software using the sigmoidal dose-response function.

[4] = biological target: T3, Btk kinase (aa2-659, Carna Biosciences) (Homo sapiens, UniProt Q06187); assay: Btk kinase enzymatic assay (TR-FRET); format: biochemical; conditions: for IC50: TR-FRET, 30 μM ATP, compound incubated with kinase 60 minutes
T3 construct: purchased Carna Biosciences
T3 sequence (Q06187 2-659): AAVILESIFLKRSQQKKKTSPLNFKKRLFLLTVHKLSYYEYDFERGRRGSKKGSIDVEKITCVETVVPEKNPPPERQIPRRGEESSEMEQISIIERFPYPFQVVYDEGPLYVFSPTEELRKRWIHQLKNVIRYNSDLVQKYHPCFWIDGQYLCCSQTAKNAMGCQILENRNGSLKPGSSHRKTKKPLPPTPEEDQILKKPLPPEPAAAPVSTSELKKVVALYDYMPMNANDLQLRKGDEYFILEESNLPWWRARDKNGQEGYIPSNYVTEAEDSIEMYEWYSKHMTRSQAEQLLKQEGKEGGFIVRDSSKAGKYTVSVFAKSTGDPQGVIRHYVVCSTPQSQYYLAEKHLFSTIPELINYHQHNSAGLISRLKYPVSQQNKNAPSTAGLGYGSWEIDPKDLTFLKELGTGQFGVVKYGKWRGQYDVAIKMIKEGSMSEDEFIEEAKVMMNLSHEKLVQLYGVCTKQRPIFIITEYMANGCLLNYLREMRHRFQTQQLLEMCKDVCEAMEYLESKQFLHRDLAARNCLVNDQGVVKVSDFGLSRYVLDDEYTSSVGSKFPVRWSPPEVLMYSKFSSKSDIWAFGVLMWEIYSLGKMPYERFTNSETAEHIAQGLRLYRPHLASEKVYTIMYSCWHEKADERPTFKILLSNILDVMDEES

Structure (SMILES) | IC50 [1] | IC50 [2] | IC50 [3] | Fold of Tec/Btk [1] | Fold of EGFR/Btk [2] | selectivity of Btk over Tec (in words) [1] | affinity / inhibitory activity for Btk (in words) [4] | IC50 [4]
C=CC(=O)Nc1ccccc1C1CCNc2c(C(N)=O)c(-c3cc(Cl)c(OC)c(Cl)c3)nn21 (centres unmarked) [169^#] | 37 nM | 0.54 nM | 28.2 nM |  |  |  |  | 
C=CC(=O)Nc1ccccc1C1CCNc2c(C(N)=O)c(-c3cc(F)c(F)c(Cl)c3)nn21 (centres unmarked) [Example 158, reference compound] | 56 nM | 0.49 nM |  | 19 fold | 0.2 fold |  |  | 
C=CC(=O)N1CCC(C2CCNc3c(C(N)=O)c(-c4ccc(C)c(OC)c4)nn32)CC1 (centres unmarked) [Example 174, reference compound] | 64 nM | 281 nM |  | 13 fold | 58.5 fold | almost no selectivity against Tec | low affinity for Btk | 
C=CC(=O)N1CCC(C2CCNc3c(C(N)=O)c(-c4cc(Cl)c(C)c(Cl)c4)nn32)CC1 (centres unmarked) [Example A7, 7-(1-acryloylpiperidin-4-yl)-2-(3,5-dichloro-4-methylphenyl)-4,5,6,7-tetrahydropyrazolo[1,5-a]pyrimidine-3-carboxamide] | 254 nM | 1190 nM | 148 nM | 62 fold | 289 fold |  |  | 4.1 nM
C=CC(=O)N1CCC(C2CCNc3c(C(N)=O)c(-c4cc(OC)c(I)c(OC)c4)nn32)CC1 (centres unmarked) [Example A8, 7-(1-acryloylpiperidin-4-yl)-2-(4-iodo-3,5-dimethoxyphenyl)-4,5, tetrahydropyrazolo[1,5-a]pyrimidine-3-carboxamide] | 130 nM | 1380 nM | 14.8 nM |  |  |  |  | 0.93 nM
C=CC(=O)N1CCC(C2CCNc3c(C(N)=O)c(-c4cc(OC)c(C)c(OCC)c4)nn32)CC1 (centres unmarked) [Example A12, 7-(1-acryloylpiperidin-4-yl)-2-(3-ethoxy-5-methoxy-4-methylphenyl)-4,5,6,7-tetrahydropyrazolo[1,5-a]pyrimidine-3-carboxamide] | 289 nM | > 10000 nM | 37.3 nM | 61 fold |  |  |  | 4.7 nM
C=CC(=O)N1CCC(C2CCNc3c(C(N)=O)c(-c4cc(Br)c(C)c(Br)c4)nn32)CC1 (centres unmarked) [Example A16, 7-(1-acryloylpiperidin-4-yl)-2-(3,5-dibromo-4-methylphenyl)-4,5,6,7-tetrahydropyrazolo[1,5-a]pyrimidine-3-carboxamide] | 556 nM | 2370 nM |  | 78 fold | 333 fold |  |  | 7.1 nM
C=CC(=O)N1CCC(C2CCNc3c(C(N)=O)c(-c4cc(OC)c(-c5ccco5)c(OC)c4)nn32)CC1 (centres unmarked) [Example A19, 7-(1-acryloylpiperidin-4-yl)-2-(4-(furan-2-yl)-3,5-dimethoxyphenyl)-4,5,6,7-tetrahydropyrazolo[1,5-a]pyrimidine-3-carboxamide] | 455 nM | > 10000 nM |  | 63.2 fold |  |  |  | 7.2 nM
C=CC(=O)N1CCC(C2CCNc3c(C(N)=O)c(-c4cc(C)c(Br)c(C)c4)nn32)CC1 (centres unmarked) [Example A20, 7-(1-acryloylpiperidin-4-yl)-2-(4-bromo-3,5-dimethylphenyl)-4,5,6,7-tetrahydropyrazolo[1,5-a]pyrimidine-3-carboxamide] | 352 nM | 496 nM | 143 nM | 107 fold | 150 fold |  | high affinity for Btk | 3.3 nM
C=CC(=O)N1CCC(C2CCNc3c(C(N)=O)c(-c4cc(OC)c(C5CC5)c(OCC)c4)nn32)CC1 (centres unmarked) [Example A33, 7-(1-acryloylpiperidin-4-yl)-2-(4-cyclopropyl-3-ethoxy-5-methoxyphenyl)-4,5,6,7-tetrahydropyrazolo[1,5-a]pyrimidine-3-carboxamide] | 499 nM | 9390 nM | 42.9 nM | 185 fold | 3479 fold |  | high affinity for Btk | 2.7 nM
C=CC(=O)N1CCC(C2CCNc3c(C(N)=O)c(-c4cc(C)c(C)c(OC)c4)nn32)CC1 (centres unmarked) [Example A34, 7-(1-acryloylpiperidin-4-yl)-2-(3-methoxy-4,5-dimethylphenyl)-4,5,6,7-tetrahydropyrazolo[1,5-a]pyrimidine-3-carboxamide] | 207 nM | 405 nM | 41.8 nM | 115 fold | 225 fold |  | high affinity for Btk | 1.8 nM
C=CC(=O)N1CCC(C2CCNc3c(C(N)=O)c(-c4cc(Cl)c(C)c(OC)c4)nn32)CC1 (centres unmarked) [Example A35, 7-(1-acryloylpiperidin-4-yl)-2-(3-chloro-5-methoxy-4-methylphenyl)-4,5,6,7-tetrahydropyrazolo[1,5-a]pyrimidine-3-carboxamide] | 174 nM | 1150 nM | 65 nM | 75.6 fold | 500 fold |  |  | 2.3 nM
C=CC(=O)N1CCC(C2CCNc3c(C(N)=O)c(-c4cc(Cl)c(C5CC5)c(OC)c4)nn32)CC1 (centres unmarked) [Example A36, 7-(1-acryloylpiperidin-4-yl)-2-(3-chloro-4-cyclopropyl-5-methoxyphenyl)-4,5,6,7-tetrahydropyrazolo[1,5-a]pyrimidine-3-carboxamide] | 137 nM | 2570 nM | 50.5 nM | 125 fold | 2339 fold |  | high affinity for Btk | 1.1 nM
C=CC(=O)N1CCC(C2CCNc3c(C(N)=O)c(-c4cc(OC)c(C(F)(F)F)c(OC)c4)nn32)CC1 (centres unmarked) [Example A38, 7-(1-acryloylpiperidin-4-yl)-2-(3,5-dimethoxy-4-(trifluoromethyl)phenyl)-4,5,6,7-tetrahydropyrazolo[1,5-a]pyrimidine-3-carboxamide] | 264 nM | 2250 nM | 36.7 nM | 94 fold | 803 fold |  |  | 2.8 nM
C=CC(=O)N1CCC(C2CCNc3c(C(N)=O)c(-c4cc(OC)c(C5CCCCC5)c(OC)c4)nn32)CC1 (centres unmarked) [Example A39, 7-(1-acryloylpiperidin-4-yl)-2-(4-cyclohexyl-3,5-dimethoxyphenyl)-4,5,6,7-tetrahydropyrazolo[1,5-a]pyrimidine-3-carboxamide] | 102 nM | 6080 nM |  | 15 fold | 894 fold |  |  | 6.8 nM
C=CC(=O)N1CCC(C2CCNc3c(C(N)=O)c(-c4cc(OC)c(CCc5ccccc5)c(OC)c4)nn32)CC1 (centres unmarked) [Example A42, 7-(1-acryloylpiperidin-4-yl)-2-(3,5-dimethoxy-4-phenethylphenyl)-4,5,6,7-tetrahydropyrazolo[1,5-a]pyrimidine-3-carboxamide] | 53 nM | 2000 nM |  | 18 fold | 668 fold |  |  | 3 nM
C=CC(=O)N1CCC(C2CCNc3c(C(N)=O)c(-c4cc(OC)c(C(=C)c5ccccc5)c(OC)c4)nn32)CC1 (centres unmarked) [Example A43, 7-(1-acryloylpiperidin-4-yl)-2-(3,5-dimethoxy-4-(1-phenylvinyl)phenyl)-4,5,6,7-tetrahydropyrazolo[1,5-a]pyrimidine-3-carboxamide] | 39 nM | 6180 nM |  | 5.7 fold | 909 fold |  |  | 6.8 nM
C=CC(=O)N1CCC(C2CCNc3c(C(N)=O)c(-c4cc(OC)c(C(C)c5ccccc5)c(OC)c4)nn32)CC1 (centres unmarked) [Example A44, 7-(1-acryloylpiperidin-4-yl)-2-(3,5-dimethoxy-4-(1-phenylethyl)phenyl)-4,5,6,7-tetrahydropyrazolo[1,5-a]pyrimidine-3-carboxamide] | 35 nM | 3170 nM |  | 7.1 fold | 647 fold |  |  | 4.9 nM
C=CC(=O)N1CCC(C2CCNc3c(C(N)=O)c(-c4cc(OC)c(C5CC5)c(OC(C)C)c4)nn32)CC1 (centres unmarked) [Example A45, 7-(1-acryloylpiperidin-4-yl)-2-(4-cyclopropyl-3-isopropoxy-5-methoxyphenyl)-4,5,6,7-tetrahydropyrazolo[1,5-a]pyrimidine-3-carboxamide] | 362 nM | > 10000 nM |  | 82 fold |  |  |  | 4.4 nM
